Paper PMC4820820, “CETSA screening identifies known and novel thymidylate synthase inhibitors and slow intracellular activation of 5-fluorouracil” (Nature Communications, 2016)

Molecular target: T1, human thymidylate synthase (TS) (Homo sapiens, UniProt P04818)
T1 construct: screening in live, non-engineered cells expressing thymidylate synthase; endogenous in cells; host or cells: K562 (human myelogenous leukemia) cells
Experiment: CETSA primary screen / single-concentration retest, AlphaScreen, live K562 cells
Assay type: cell-based
Conditions: 50 μM compound, 2 h preincubation, 50 °C; 0% = DMSO, 100% = 100 nM raltitrexed
Description: Compounds were placed in columns 1–22. […] At the day of the experiment the plates were allowed to thaw for 30 min followed by a brief centrifugation step (1,000 × g for 1 min) prior to removal of the seal. The compounds were then diluted with 20 μl supplemented cell culture medium using a Multidrop Combi reagent dispenser (Thermo Scientific). Finally 5 μl of the diluted compounds were transferred to a 384 well hardshell PCR plate (HSR480, BIORAD) using a Bravo liquid handling platform equipped with a 384-well head (Agilent). […] The final concentration of DMSO in the assay was 0.5% in all samples.
The screen procedure started with the addition of 5 μl of a suspension of K562 cells at a density of 10 million cells per ml to all wells of a 384 well hardshell PCR plate (HSR480, BIORAD) using an electronic multichannel pipette (Biohit). […] For the time-course experiments the incubation times were altered to include also 10 min, 30 min and 6 h. […] After the incubation step the plates were transiently heated at 50 °C for 3 min followed by a controlled cooling to 20 °C for 1 min using a real-time PCR machine (LightCycler480 system, Roche). Plate handling was then as described above for the thermal aggregation experiments. The data were analyzed using microsoft excel and GraphPad Prism 6.
A calculation of the average and standard error of means for each set of controls also allowed an illustration of how these responses varied over the 32 screening plates. The Z′ factor[38] is commonly used as a measure of how well the assay separates between the controls and this was calculated as described based on the calculated averages and standard deviations of the controls on a per plate basis. For the Tagg shift and the […] experiments the data were analyzed in GraphPad Prism using the Boltzmann sigmoid equation and the saturation binding curve (rectangular hyperbola; binding isotherm) function, respectively. As already discussed[14] these methods make use of equilibrium models for data analysis although the methodology depends on the irreversible aggregation of denatured material. For this reason we refer to the observed responses as apparent and isothermal dose-response fingerprints and are careful with any quantitative interpretations, being well aware of their dependency on experimental conditions. Experiments are on-going to address the quantitative interpretation of CETSA data.

T1 sequence (P04818 2-313 limits assumed): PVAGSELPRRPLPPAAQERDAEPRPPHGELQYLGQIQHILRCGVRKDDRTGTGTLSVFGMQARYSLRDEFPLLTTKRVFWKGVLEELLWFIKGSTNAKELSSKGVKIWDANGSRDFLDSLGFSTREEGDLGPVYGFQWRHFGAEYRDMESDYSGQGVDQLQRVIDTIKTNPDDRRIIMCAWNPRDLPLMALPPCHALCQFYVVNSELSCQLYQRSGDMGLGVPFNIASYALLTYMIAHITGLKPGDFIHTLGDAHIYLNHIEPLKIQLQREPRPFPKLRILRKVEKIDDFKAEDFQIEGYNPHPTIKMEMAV

SMILES	% stabilization in screen
Cn1c(=O)ccn([C@@H]2O[C@H](CO)[C@H](O)C2O)c1=O (stereo partly drawn) [CBK201281]	-1%
C#CCOc1cn([C@H]2C[C@@H](O)[C@@H](CO)O2)c(=O)[nH]c1=O [CBK201278]	7%
Cc1cn(C2CC(O)C(CNC(=O)C(F)(F)F)O2)c(=O)[nH]c1=O (stereo not drawn) [CBK201200]	0%
O=c1[nH]c(=O)n([C@@H]2O[C@H](CO)[C@H](O)C2O)cc1I (stereo partly drawn) [CBK201304]	-1%
O=C(O)/C=C/c1cn([C@H]2C[C@@H](O)[C@@H](CO)O2)c(=O)[nH]c1=O [CBK201174]	17%
Nc1nc(=O)n([C@@H]2O[C@H](CO)[C@H](O)C2O)cc1I (stereo partly drawn) [CBK201306]	-1%
COC1C(O)C(CO)OC1n1cc(F)c(=O)[nH]c1=O (stereo not drawn) [CBK201253]	61%
Cc1cn([C@H]2C[C@@H](O)[C@@H](CI)O2)c(=O)[nH]c1=O [CBK201197]	-1%
Cc1cn(C2CC(O)C(CO)O2)c(=O)[nH]c1=O (stereo not drawn) [CBK011998]	-1%
CN(C)/C=N/c1nc(=O)n([C@H]2CC(O)[C@@H](CO)O2)cc1/C=C/C(=O)NCCCCCCNC(=O)C(F)(F)F (stereo partly drawn) [CBK201330]	13%
COC(=O)/C=C/c1cn(C2OC(CO)C(O)C2O)c(=O)[nH]c1=O (stereo not drawn) [CBK201339]	-1%
O=c1[nH]c(=O)n([C@H]2C[C@@H](O)[C@@H](CO)O2)cc1CCO [CBK201239]	17%
O=c1ccn([C@H]2C[C@@H](O)[C@@H](CO)O2)c(=O)[nH]1 [CBK201316]	-1%
Cc1cn([C@H]2C[C@@H](O)[C@@H](CO)O2)c(=O)n(CCC#N)c1=O [CBK201322]	-1%
Cc1cc2cn([C@H]3C[C@@H](O)[C@@H](CO)O3)c(=O)nc2o1 [CBK201287]	20%
COC1C(O)C(CO)OC1n1cc(F)c(Oc2c(C)cc(C)cc2C)nc1=O (stereo not drawn) [CBK201279]	0%
O=C(/C=C/c1cn(C2CC(O)C(CO)O2)c(=O)[nH]c1=O)NCCCCCCNC(=O)C(F)(F)F (stereo not drawn) [CBK201310]	15%
Cc1cn(C2CC(O)C(C3N(c4ccccc4)CCN3c3ccccc3)O2)c(=O)[nH]c1=O (stereo not drawn) [CBK201232]	-1%
C#Cc1cn([C@@H]2O[C@H](CO)[C@H](O)C2O)c(=O)[nH]c1=O (stereo partly drawn) [CBK201179]	20%
Cc1ccc(S(=O)(=O)OC[C@H]2O[C@@H](n3ccc(=O)[nH]c3=O)C[C@H]2O)cc1 [CBK201283]	-2%
Cc1cn([C@@H]2O[C@H](CO)[C@H](O)C2O)c(=O)[nH]c1=O (stereo partly drawn) [CBK201265]	17%

SMILES	% stabilization in screen
O=C(/C=C/c1cn(C2OC(CO)C(O)C2O)c(=O)[nH]c1=O)NCCCCCCNC(=O)C(F)(F)F (stereo not drawn) [CBK201231]	-1%
C[CH2][Hg][S]c1ccccc1C(=O)[O-].[Na+] [CBK200591N, Thimerosal, reference compound]	115%
O=c1nc2c(cn1[C@H]1C[C@@H](O)[C@@H](CO)O1)Sc1ccccc1N2 [CBK201237]	9%
CCOc1nc(=O)c(C)cn1C1CC(O)C(CO)O1 (stereo not drawn) [CBK201334]	-1%
Cc1cn([C@H]2C[C@@H](O)[C@@H](CO)O2)c(=O)nc1N.Cl [CBK201307]	4%
O=c1[nH]c(=O)n([C@H]2C[C@@H](O)[C@@H](CO)O2)cc1CO [CBK201332]	9%
O=C(/C=C/c1cn([C@H]2C[C@@H](O)[C@@H](CO)O2)c(=O)[nH]c1=O)ON1C(=O)CCC1=O [CBK201188]	16%
Cc1cn([C@H]2C[C@@H](O)[C@@H](CN)O2)c(=O)[nH]c1=O [CBK201315]	-1%
O=C(NC/C=C/c1cn(C2OC(CO)C(O)C2O)c(=O)[nH]c1=O)C(F)(F)F (stereo not drawn) [CBK201298]	-1%
Nc1nc(=O)n([C@H]2C[C@@H](O)[C@@H](CO)O2)cc1I [CBK201226]	7%
Cc1cn2c(nc1=O)OC[C@H]1O[C@@H]2C[C@H]1O [CBK201280]	0%
COC1C(O)C(CO)OC1n1cc(F)c(=S)[nH]c1=O (stereo not drawn) [CBK201168]	2%
Nc1ccn([C@H]2C[C@@H](O)[C@@H](CO)O2)c(=O)n1 [CBK201274]	-1%
O=C(O)/C=C/c1cn([C@@H]2O[C@H](CO)[C@H](O)C2O)c(=O)[nH]c1=O (stereo partly drawn) [CBK201270]	-1%
O=c1[nH]c(=O)n([C@H]2C[C@@H](O)[C@@H](CO)O2)cc1O [CBK201317]	16%
Cc1cc2cn([C@H]3C[C@@H](O)[C@@H](CO)O3)c(=O)nc2[nH]1 [CBK201302]	21%
Nc1cccc(-c2cn([C@H]3C[C@@H](O)[C@@H](CO)O3)c(=O)[nH]c2=O)c1 [CBK201262]	16%
O=C(/C=C/c1cn(C2CC(O)C(CO)O2)c(=O)[nH]c1=O)NCCNC(=O)C(F)(F)F (stereo not drawn) [CBK201214]	9%
O=c1[nH]c(=O)n([C@@H]2O[C@H](CO)[C@H](O)C2O)cc1Br (stereo partly drawn) [CBK201180]	-1%
O=C(NC/C=C/c1cn(C2CC(O)C(CO)O2)c(=O)[nH]c1=O)C(F)(F)F (stereo not drawn) [CBK201249]	17%

Same assay, conditions: 6 h preincubation, K562 cells

SMILES	% stabilization at retest (6h preincubation)
C#CCOc1cn([C@H]2C[C@@H](O)[C@@H](CO)O2)c(=O)[nH]c1=O [CBK201278]	12%
O=c1[nH]c(=O)n([C@H]2C[C@@H](O)[C@@H](CO)O2)cc1CO [CBK201332]	7%
COC1C(O)C(CO)OC1n1cc(F)c(=S)[nH]c1=O (stereo not drawn) [CBK201168]	5%

Same assay, conditions: K562, 2 h, 50 μM compound, 2 h preincubation, 50 °C; 0% = DMSO, 100% = 100 nM raltitrexed; read-out: % stabilization in screen

SMILES	% stabilization in screen at 50 µM
c1cnc(N2CCN(Cc3ccc4c(c3)OCO4)CC2)nc1 [CBK041124C, Piribedil, reference compound]	17%
CN1CCN(c2c(F)cc3c(=O)c(C(=O)O)cn(CCF)c3c2F)CC1 [CBK201030, Fleroxacin, reference compound]	66%
CC(=O)OCC(=O)[C@@]12OC3(CCCC3)O[C@@H]1C[C@H]1[C@@H]3CCC4=CC(=O)C=C[C@]4(C)[C@@]3(F)[C@@H](O)C[C@@]12C [CBK200950, Amcinonid, reference compound]	56%
Clc1ccc(C(Cn2ccnc2)OCc2csc3c(Cl)cccc23)c(Cl)c1 (stereo not drawn) [CBK200917G, Sertaconazole nitrate, reference compound]	66%

Same assay, conditions: K562, 2 h; read-out: % stabilization in screen

SMILES	% stabilization in screen at 50 µM
Nc1ncnc2c1nc(Br)n2[C@@H]1O[C@H](CO)[C@@H](O)[C@H]1O [CBK015742, 8-bromoadenosine]	20%
Nc1ccn([C@@H]2O[C@H](CO)[C@@H](O)C2(F)F)c(=O)n1 [CBK200978, gemcitabine, reference compound]	0%
COc1ccccc1N1CCN(CC(O)COc2cccc3ccccc23)CC1 (stereo not drawn) [CBK041301C, Naftopidil, reference compound]	59%
C=CCOc1nc2c(=O)[nH]c(NC(=O)C(C)C)nc2n1[C@H]1C[C@H](O)[C@@H](CO)O1 [CBK201216, 8-allyloxy-N2-isobutyryl-2′-deoxyguanosine]	30%
Cc1ccc2c(c1)c1c3n2CCNC3CCC1 (stereo not drawn) [CBK200931G, Pirlindole, reference compound]	23%
Nc1nc(N)c2nc(-c3ccccc3)c(N)nc2n1 [CBK012158, Triamterene, reference compound]	78%
Nc1ncn([C@@H]2O[C@H](CO)[C@@H](O)[C@H]2O)c(=O)n1 [CBK200768, 5-Azacytidine, reference compound]	32%
CC(C)NCC(O)c1ccc(NS(C)(=O)=O)cc1 (stereo not drawn) [CBK012353C, Sotalol, reference compound]	14%
Cc1ccc(-c2cc(C(F)(F)F)nn2-c2ccc(S(N)(=O)=O)cc2)cc1 [CBK041793, Celecoxib, reference compound]	61%
